From patent US12616740B2, “Methods of using a GIP/GLP1 co-agonist for therapy” (ELI LILLY AND COMPANY, priority 2018, dated 2026)

How the values were obtained:
[1] = system: patients with T2DM who have inadequate glycemic control; experiment: NCT03131687: mean fasting glucose at Week 26; format: in vivo, human; parameters: Mean change from baseline, fasting glucose: unit not given here
Procedure: Clinical Study (NCT03131687) Supporting Maintenance Dose Embodiments A 6-month (26-week) Phase 2 double-blind clinical study is designed to evaluate the safety, efficacy, and PK/PD of 4 dose levels (1 mg, 5 mg, 10 mg and 15 mg respectively) of tirzepatide once weekly by subcutaneous injection compared with dulaglutide 1.5 mg. once weekly (QW) and placebo QW in patients with T2DM who have inadequate glycemic control with diet and exercise with or without a stable dose of metformin. Tirzepatide dose is up-titrated to the maintenance dose using the following weekly dose increments:
The study also has a 4-week follow up period. In addition to safety and efficacy for treating T2DM, efficacy endpoints include the effect of tirzepatide on HbA1c, FBG, body weight, lipids, and waist circumference compared with placebo and with dulaglutide 1.5 mg. The study also evaluates the effect of tirzepatide on GI tolerability, hypoglycemia, hypersensitivity reactions, and pancreatic safety, as well as the development of treatment-emergent anti-drug antibodies. Model-based dose response analyses are performed to predict potential for significant HbA1c lowering and weight loss in longer studies. Statistical Analyses: Efficacy: The primary efficacy outcome of HbA1c change from baseline to the 26-week endpoint is analyzed using a Bayesian dose-response model. Analyses are performed on the intention to treat population (mITT) analysis set. Supportive analysis of the primary efficacy outcome for the mITT dataset are the model for post-baseline measures (MMRM) with body mass index (BMI) (<30 kg/m^2, ≥30 kg/m^2), metformin use, treatment, visit, and treatment-by-visit interaction as fixed effects, baseline HbA1c as a covariate, and patient as a random effect. The mean weight change from baseline at 12 and 26 weeks, along with the mean change from baseline of HbA1c at 12 weeks, is analyzed using similar dose-response models as the primary analyses. The percentages of patients with ≥5% or ≥10% body weight loss, reaching the HbA1c target of ≤6.5% or ≤7.0% at 26 weeks, or requiring rescue therapy are analyzed using logistic regression with fixed effects of treatment and strata, and baseline as a covariate. The changes from baseline in FBG (fasting blood glucose), SMBG (self-monitored blood glucose) levels, waist circumference, and mean percentage change in lipids from baseline to 12 and 26 weeks are analyzed using a similar MMRM to the one used for the primary analyses. Table Abbreviations: Dula 1.5 mg=dulaglutide 1.5 mg once weekly; LY means tirzepatide, and LY 1 mg=tirzepatide 1 mg once weekly; LY 5 mg=5 mg once weekly; LY 10 mg=escalation dose group tirzepatide once weekly with highest dose of 10 mg; LY 15 mg=escalation dose group of tirzepatide once weekly with highest dose 15 mg; LOCF=last observation-carried-forward; N=number of patients; pbo=placebo; Week 26=mITT on-treatment data at Week 26 excluding data after study drug discontinuation or rescue drug initiation; mITT=modified intent-to-treat; SD=standard deviation. For Table 4, n=number of patients in the population with baseline and post-baseline value at the specified time point. For Table 6, LY10 mg=escalation dose group tirzepatide, once weekly with highest dose of 10 mg; escalation dose: (5 mg weeks 0 and 1), LY15 mg=escalation dose group tirzepatide, once weekly with highest dose of 15 mg; escalation dose: (5 mg weeks 0 and 1; 10 mg weeks 2 to 5); N=number of patients in specified group, m=number of patients who experienced new event during interval, FolUp=follow up, T/Wk=Time range, (week) and %=means percent patients spending at least some time in treatment group who experienced new event during interval. For Table 7, n is the number of patients with events meeting the criteria; N is number of patients in the population; % is percent of patients in treatment group experiencing the event.

[2] = NCT03311724: weight loss at Week 12; format: in vivo, human
Description: This is a 12-week treatment with a 1 week screening (Visit 1) followed by a 1 week lead-in (Visit 2), then 12 weeks of treatment (Visits 3-10, including telephone visits), then followed by 4-week safety follow-up. It is a Phase 2 study designed to examine the efficacy and tolerability of subcutaneously once-weekly tirzepatide compared with placebo in patients with type 2 diabetes who have inadequate glycemic control with diet and exercise alone or with a stable dose of metformin. The study was designed per below and conducted to refine the escalation scheme.

[3] = LY1 mg = tirzepatide 1 mg once weekly, N 44
[4] = LY5 mg = tirzepatide 5 mg once weekly, N 48
[5] = LY10 mg = tirzepatide once weekly, highest dose 10 mg, N 44
[6] = LY15 mg = tirzepatide once weekly, highest dose 15 mg, N 35
[7] = LY 12 mg Group 3 (tirzepatide 4 mg × 4, 8 mg × 4, 12 mg × 4 once weekly), LOCF Week 12 (N = 27)
[8] = LY 12 mg Group 3 (tirzepatide 4 mg × 4, 8 mg × 4, 12 mg × 4 once weekly), Week 12 mITT on-treatment (N = 27)
[9] = LY 15 mg-Group 1 (tirzepatide 2.5 mg × 2, 5 mg × 2, 10 mg × 4, 15 mg × 4 once weekly), LOCF Week 12 (N = 27)
[10] = LY 15 mg-Group 1 (tirzepatide 2.5 mg × 2, 5 mg × 2, 10 mg × 4, 15 mg × 4 once weekly), Week 12 mITT on-treatment (N = 23)
[11] = LY 15 mg-Group 2 (tirzepatide 2.5 mg × 4, 7.5 mg × 4, 15 mg × 4 once weekly), LOCF Week 12 (N = 27)
[12] = LY 15 mg-Group 2 (tirzepatide 2.5 mg × 4, 7.5 mg × 4, 15 mg × 4 once weekly), Week 12 mITT on-treatment (N = 26)

In the case of tirzepatide [LY], the “Mean change from baseline, fasting glucose” value (from here on “Mean change from baseline”) [1, 3] is reported as −6.2, the “Mean glucose value (fasting)” value [1, 3] is reported as 154.9 mg/dL and the “Mean change from baseline” value [1, 4] is reported as −46.7. For the same substance, the “Mean glucose value (fasting)” value [1, 4] was 126.5 mg/dL, the “Mean change from baseline” value [1, 5] was −66.9 and the “Mean glucose value (fasting)” value [1, 5] was 104.8 mg/dL. The “Mean change from baseline” value [1, 6] was −56.8, the “Mean glucose value (fasting)” value [1, 6] was 110.3 mg/dL and the “fasting serum glucose (in words)” value ([1]; tirzepatide 5 mg, 10 mg, and 15 mg doses) was “significantly decrease fasting serum glucose compared with placebo and dulaglutide 1.5 mg”. For the same substance, the “body weight vs placebo (in words)” value ([2]; 12 mg and 15 mg tirzepatide doses, at 12 weeks) was “significant reductions in body weight compared with placebo”, the “% of Patients Achieving Weight loss ≥5%” value [2, 7] was 63.0% and the “% of Patients Achieving Weight loss ≥10%” value [2, 7] was 18.5%. The “odds ratio vs. placebo, Weight loss ≥5%” value [2, 7] was 22.7, the “odds ratio vs. placebo, Weight loss ≥10%” value [2, 7] was 10.4 and the “% of Patients Achieving Weight loss ≥5%” value [2, 8] was 63.0%. For the same substance, the “% of Patients Achieving Weight loss ≥10%” value [2, 8] was 18.5%, the “odds ratio vs. placebo, Weight loss ≥5%” value [2, 8] was 20.7 and the “odds ratio vs. placebo, Weight loss ≥10%” value [2, 8] was 9.3. For the same substance, the “% of Patients Achieving Weight loss ≥5%” value [2, 9] was 59.3%, the “% of Patients Achieving Weight loss ≥10%” value [2, 9] was 14.8% and the “odds ratio vs. placebo, Weight loss ≥5%” value [2, 9] was 20.5. The “odds ratio vs. placebo, Weight loss ≥10%” value [2, 9] was 8.0, the “% of Patients Achieving Weight loss ≥5%” value [2, 10] was 56.5% and the “% of Patients Achieving Weight loss ≥10%” value [2, 10] was 13.0%. For the same substance, the “odds ratio vs. placebo, Weight loss ≥5%” value [2, 10] was 17.1, the “odds ratio vs. placebo, Weight loss ≥10%” value [2, 10] was 6.2 and the “% of Patients Achieving Weight loss ≥5%” value [2, 11] was 55.6%. For the same substance, the “% of Patients Achieving Weight loss ≥10%” value [2, 11] was 18.5%, the “odds ratio vs. placebo, Weight loss ≥5%” value [2, 11] was 17.6 and the “odds ratio vs. placebo, Weight loss ≥10%” value [2, 11] was 10.6. For the same substance, the “% of Patients Achieving Weight loss ≥5%” value [2, 12] was 57.7%, the “% of Patients Achieving Weight loss ≥10%” value [2, 12] was 19.2% and the “odds ratio vs. placebo, Weight loss ≥5%” value [2, 12] was 17.4. The “odds ratio vs. placebo, Weight loss ≥10%” value [2, 12] was 9.7.
